Data reported in patent publication US20210228509A1 (Nacuity Pharmaceuticals, Inc., priority 2020, published 2021).

Tests used:
[1] = system: isolated rat lens; assay: Inhibition of oxidation of isolated rat lenses (H2O2 cataract model); format: cell-based, Wistar rat; conditions: 10 mM, 24 hour incubation, then 0.5 mM H2O2 24 hours; compared to control (FIG. 1)
Experimental: Protocol for inhibition of oxidation of isolated rat lenses. Three-week old Wistar rat eyes were enucleated and lenses micro-dissected in Dulbecco's modified eagle's medium (low glucose) (DMEM-F12). Lenses were handled using only custom-made glass loops to avoid changes in transparency and placed in 1 mL DMEM with 1% penicillin/streptomycin/neomycin. Lenses were placed in a culture incubator set at 37° C./5% CO2 for one hour. Then lenses were imaged under darkfield and brightfield (grid) to ensure they are still transparent before adding vehicle (H20), 10 mM NACA (solution), or 10 mM diNACA (suspension). Lenses were then imaged at a 6-hour time period to ensure transparency was maintained, then incubated for another 18 hours, then imaged again (total 24 hour incubation). Media was collected and fresh media was added to the wells. 0.5 mM H2O2 (warmed at 37 deg C) was added and left for a further 24-hour incubation. Lenses were imaged, media collected, lenses weighed and flash frozen in tared vials and submitted for further analysis

[2] = system: isolated porcine lenses; assay: Inhibition of oxidation of isolated porcine lenses (H2O2-induced cataract); format: cell-based, pigs; conditions: for inhibition of H2O2-induced cataract: 24 hours pre-incubation, then 600 μM H2O2 with glucose oxidase 6 hours (FIG. 2); for efficacy against H2O2-induced cataract relative to NAC: FIG. 2
Experimental: Protocol for inhibition of oxidation of isolated porcine lenses. Fresh eyes from pigs were obtained from Sierra For Medical Science. Lenses were first incubated in medium 199 (Sigma-Aldrich, St. Louis, Mo., USA) and 1% pig serum in a 12-well plate for two hours. At the end of the incubation, lenses were imaged under darkfield microscopy and only clear, transparent lenses were used for further experimentation. Lenses were then pre-incubated with NAC, NACA or diNACA for 24 hours. After pretreatment, lenses were transferred to media containing 600 μM H2O2 which was supplemented with glucose oxidase (GO) for maintaining a constant H2O2 level during further incubation for 6 hours [Wang G M, Raghavachari N, Lou M F. Relationship of protein-glutathione mixed disulfide and thioltransferase in H2O2-induced cataract in cultured pig lens. Exp Eye Res. 1997 May; 64(5):693-700. doi: 10.1006/exer.1996.0251. PMID: 9245898.]. At the end of the 6-hour incubation, lenses were imaged under darkfield microscopy

[3] = system: human melanocytes; conditions: cited from earlier work
[4] = system: healthy human skin explants; conditions: healthy human skin explants exposed to UV-radiation; cited from earlier work
[5] = target: tyrosinase (Homo sapiens, UniProt P14679); conditions: cited from earlier work
[6] = system: human retinal pigment epithelial cells; conditions: cited from earlier work
[7] = system: mouse model of RP; conditions: compared with NAC; cited from earlier work
[8] = system: sodium selenite-induced cataracts; conditions: in vivo; cited from earlier work
[9] = system: J-buthionine-(S,R)-induced cataracts; conditions: in vivo; cited from earlier work
[10] = system: rats with unilateral 6-OHDA-induced nigral lesion; conditions: cited from earlier work
[11] = system: mice treated with 1-methyl-4-phenyl-1,2,3,6,-tetrahydropyridine; conditions: MPTP-treated mice; cited from earlier work
[12] = system: rats given chronic intrajugular rotenone; conditions: chronic intrajugular rotenone in rats; cited from earlier work
[13] = system: CD-1 mice; conditions: gp120+Tat+METH; cited from earlier work
[14] = system: olfactory bulbectomized rats; conditions: cited from earlier work
[15] = system: blood cells from β-thalassemic patients; conditions: cited from earlier work
[16] = system: β-thalassemic mice; conditions: intra-peritoneal injection, 150 mg/kg; cited from earlier work
[17] = system: RBCs; conditions: compared with NAC; cited from earlier work
[18] = target: glutamate cysteine ligase (GCL, EC 6.3.2.2); conditions: read-out: Ki, nonallosteric competitive inhibition of GCL; cited from earlier work
[19] = system: patients with presbyopia; conditions: first-in-human trial in presbyopes; cited from earlier work
[20] = system: human cadaver lenses; conditions: in vitro; cited from earlier work
[21] = system: rabbit eyes; conditions: in vivo; cited from earlier work
[22] = system: RP patients; conditions: oral high dose NAC, cited from earlier work
[23] = system: alcohol-preferring rats; conditions: alcohol re-access after deprivation, 60 minutes; untreated 95 to 100 mg/dL; cited from earlier work
[24] = humans, oral dose of 600 mg; cited from earlier work
[25] = system: corneal endothelial cells; conditions: cell culture; cited from earlier work
[26] = system: mouse model; conditions: cited from earlier work
[27] = Topical ocular study in rabbit (NACA in aqueous humor, ocular tolerability); format: in vivo, Dutch Belted rabbits
Experimental: Example 2: Topical Ocular Study in Rabbit. An IACUC-approved study evaluated diNACA or NACA topical ocular dosing in rabbit. Ophthalmic formulations were developed containing either 1% diNACA or 1% NACA that were used for repeated topical ocular instillation to Dutch Belted rabbits. Animals were dosed four times a day at approximately 8:00 AM, 11 AM, 2 PM, and 4:00 PM on days 1-6, and once on Day 7 at approximately 8:00 AM, via bilateral topical administration. Ocular tolerability was assessed at baseline and prior to the first daily dose by means of scoring chemosis, discharge, and hyperemia (Draize scoring). Ocular tissue was harvested at necropsy (day 7). A qualified analytical LC-MS method was developed and used to quantitate NACA levels in aqueous humor (AH).

[28] = Oral dose study in rat (plasma levels); format: in vivo, male Sprague-Dawley rats; conditions: oral gavage diNACA 200 milligrams per kilogram (FIG. 5)
Experimental: DiNACA as a Prodrug to NACA and NAC. Example 1: Oral Dose Study in Rat. An IACUC (Institutional Animal Care and Use Committee)-approved study evaluated diNACA dosed via oral gavage in male Sprague-Dawley rats. diNACA was weighed into individual tubes. The tubes were capped and stored at room temperature overnight. Rats were weighed. An appropriate amount of phosphate buffered saline pH 7.0 was added to each tube to achieve the desired diNACA concentration as a suspension. Blood specimens were collected from the tail vein at specified time points and processed to produce plasma. Plasma specimens were analyzed using a validated liquid chromatographic mass spectrometric procedure (King B; Vance J; Wall G M; Shoup R. Quantitation of free and total N-acetylcysteine amide and its metabolite N-acetylcysteine in human plasma using derivatization and electrospray LC-MS/MS. J Chrom B 2019; 1109:25-36.).

[29] = Intravitreal dose study in rabbit (diNACA implant); format: in vivo, Female New Zealand White rabbits
Experimental: Example 3: Intravitreal Dose Study in Rabbit. An IACUC-approved study evaluated intravitreally (IVT) dosed diNACA in rabbit. A standard sterile intravitreal implant containing diNACA was prepared. Female New Zealand White rabbits were administered IVT with a di-NACA implant at a dose of 0.8 mg/eye. One group of animals received IVT placebo implants without any test article. Clinical ophthalmic examinations were performed at baseline and on Days 8 and 23 post-dose. General health observations were performed daily. Body weights were recorded at baseline and prior to termination. Animals were euthanized on Day 8, 15, or 23, and tissue was collected and submitted for bioanalysis. […] Observations of conjunctival bulging, discharge, and minimal hemorrhaging were determined to be related to the injection procedure and resolved in most eyes on the day after dosing.

[30] = vitreous humor (FIG. 6, FIG. 7)

Chain of tyrosinase (P14679 19-529, species assumed): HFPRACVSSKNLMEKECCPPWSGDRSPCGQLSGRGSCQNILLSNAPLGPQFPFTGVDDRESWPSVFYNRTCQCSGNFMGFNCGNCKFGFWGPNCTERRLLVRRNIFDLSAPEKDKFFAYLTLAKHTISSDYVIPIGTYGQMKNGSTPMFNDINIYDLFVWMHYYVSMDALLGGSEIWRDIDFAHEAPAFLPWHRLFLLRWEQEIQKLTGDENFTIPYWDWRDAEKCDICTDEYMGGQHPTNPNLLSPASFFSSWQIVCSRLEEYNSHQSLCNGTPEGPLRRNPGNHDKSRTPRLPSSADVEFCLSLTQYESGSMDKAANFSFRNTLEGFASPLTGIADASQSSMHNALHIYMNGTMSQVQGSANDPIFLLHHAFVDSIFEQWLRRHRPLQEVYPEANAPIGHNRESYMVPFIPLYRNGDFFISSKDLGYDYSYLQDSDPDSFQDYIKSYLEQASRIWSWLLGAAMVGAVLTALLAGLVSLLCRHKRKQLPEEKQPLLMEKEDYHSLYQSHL

CC(=O)N[C@@H](CS)C(N)=O
inhibition of oxidative formation of cataract (opacity) [1]: inhibit oxidative formation of cataract (opacity)
inhibition of H2O2-induced cataract [2]: dose-dependently inhibit H2O2-induced cataract
efficacy against H2O2-induced cataract relative to NAC [2]: greater efficacy than NAC
melanin production [3]: inhibited melanin production
glutathione and NAC in skin [4]: increased glutathione and NAC
inhibition of tyrosinase activity [5]: significant inhibition of tyrosinase activity was observed in a dose responsive manner
protection against oxidative stress-induced cellular injury and death [6]: protected against oxidative stress-induced cellular injury and death
improvement of visual parameters [7]: to a greater extent than NAC
inhibition of sodium selenite-induced cataracts [8]: inhibit
inhibition of buthionine sulfoximine-induced cataracts [9]: inhibit
amphetamine-induced rotational behaviour [10]: suppressed amphetamine-induced rotational behaviour
reduction in striatal dopamine levels [11]: attenuated the reduction in striatal dopamine levels
dopaminergic neuronal loss [12]: reduced dopaminergic neuronal loss
rescue from oxidative stress (GSH, MDA) [13]: significantly rescued the animals from oxidative stress
cocaine-seeking behavior [14]: blocked cocaine-seeking behavior
reduction of oxidative stress markers in thalassemic cells relative to NAC ([15]; both in vitro and in vivo): superior to NAC
reactive oxygen species (ROS) of blood cells ([15]; in vitro treatment): reduced their reactive oxygen species (ROS)
reduced GSH content of RBC, platelets and PMN leukocytes ([15]; in vitro treatment): elevated the reduced GSH content
parameters of oxidative stress [16]: significantly reduced the parameters of oxidative stress
BuOOH-induced intracellular oxidation, thiol depletion and hemoglobin oxidation in RBCs [17]: superior to NAC

N[C@@H](CCC(=O)N[C@@H](CS)C(=O)NCC(=O)O)C(=O)O [GSH, c-L-glutamyl-L-cysteinyl-glycine]
Ki [18]: 2.3 mM

C[N+](C)(C)CCOC(=O)CCCC[C@@H]1CCSS1 [LACE, lipoic acid choline ester]
near visual acuity (DCNVA) improvement compared to placebo [19]: statistically significant
lens softening and deformability [20]: lens softening and an increase in lens deformability
lens softening and deformability [21]: lens softening and an increase in lens deformability

CC(=O)NC(CS)C(=O)O (stereo not drawn) [NAC, 2-acetamido-3-sulfanylpropanoic acid]
inhibition of H2O2-induced cataract [2]: dose-dependently inhibit H2O2-induced cataract
improvement of visual acuity ([22]; RP patients (n=30), p<0.05): 2-5 letters
aqueous humor concentrations of NAC ([22]; RP patients): increased aqueous humor concentrations of NAC
reduction of relapse-drinking blood alcohol levels [23]: 60%
plasma half-life [24]: 2.5 h
time after administration at which no NAC is detectable [24]: 10 to 12 h
corneal endothelial survival [25]: increased corneal endothelial survival
corneal endothelial survival [26]: increased corneal endothelial survival

CC(=O)Oc1ccccc1C(=O)O [aspirin]
reduction of relapse-drinking blood alcohol levels [23]: 60%

CC(=O)NC(CSSCC(NC(C)=O)C(N)=O)C(N)=O [diNACA, (2R,2R′)-3,3′-disulfanediyl bis(2-acetamidopropanamide)]
penetration into the eye (aqueous humor) ([27]; topical ocular dosing): penetrates the eye
prodrug delivery of NACA to aqueous humor ([27]; topical ocular dosing of 1% diNACA): served as a prodrug to deliver NACA to the AH
inhibition of oxidative formation of cataract (opacity) [1]: inhibit oxidative formation of cataract (opacity)
inhibition of H2O2-induced cataract [2]: dose-dependently inhibit H2O2-induced cataract
efficacy against H2O2-induced cataract relative to NAC [2]: greater efficacy than NAC
bioavailability after oral administration [28]: bioavailable
levels in rat plasma after oral diNACA [28]: significant levels of diNACA, NACA and NAC
effects on general, non-ocular health or on body weights ([29]; IVT implant 0.8 mg/eye): No serious adverse effects
ocular findings on the day of dosing ([29]; IVT implant 0.8 mg/eye): minimal ocular findings
tolerability of IVT delivery ([29]; IVT implant 0.8 mg/eye, up to Day 23): generally well tolerated
elution into vitreous humor from IVT implant [29, 30]: eluted into the VH
metabolites in vitreous humor after diNACA IVT implant [29, 30]: presence of NACA and significant concentrations of NAC in the VH
melanin production [3]: inhibited melanin production
glutathione and NAC in skin [4]: increased glutathione and NAC
inhibition of tyrosinase activity [5]: significant inhibition of tyrosinase activity was observed in a dose responsive manner
